The numbers were not newly measured in patent US20060165808A1, “Microcapsules for the delayed, controlled release of perindopril” (priority 2002, published 2006), which cites them from elsewhere.

In the case of `CCC[C@H](N[C@@H](C)C(=O)N1[C@H](C(=O)O)C[C@@H]2CCCC[C@@H]21)C(=O)OCC` [perindopril], the “solubility in aqueous media” value is listed as “very high degree of solubility”.
